Results reported in US7858644B2, “EP4 receptor antagonists” (Asterand UK Limited, priority 2003, dated 2010).

Legend:
human EP4 receptor = target: T1, human EP4 receptor (Homo sapiens, UniProt P35408); test: Binding ability to human EP4 receptor ([3H]PGE2 displacement); settings: read-out: pKi EP4 (converted)
T1 construct: expressed in transfected cells
Procedure: (§1) Membranes were prepared from cells stably transfected with human EP receptor cDNA. In brief, cells were cultured to confluency, scraped from culture flasks, and centrifuged (800 g, 8 minutes, 4° C.). Cells were twice washed in ice cold homogenisation buffer containing 10 mMTris-HCl, 1 mM EDTA. 2Na, 250 mM sucrose, 1 mM PMSF, 0.3 mM indomethacin, pH 7.4, homogenised and re-centrifuged as before. The supernatant was stored on ice and pellets re-homogenised and re-spun. Supernatants were pooled and centrifuged at 40000 g, 10 minutes, 4° C. Resultant membrane pellets were stored at −80° C. until use.
(§2) Incubations were performed at suitable temperatures and for suitable times to allow equilibrium to be reached. Non-specific binding was determined in the presence of 10 uM PGE2. Bound and free radiolabel was separated by vacuum manifold filtration using appropriate wash buffers, and bound radiolabel was determined by scintillation counting. Constituents of each of the buffers are included in table 1 below.
(§3) This approach follows that set out in Kenakin, T. P., Pharmacologic analysis of drug receptor interaction. Raven Press, New York, 2nd edition.

human EP2 receptor = target: T2, human EP2 receptor (Homo sapiens, UniProt P43116); test: Binding ability to human EP2 receptor ([3H]PGE2 displacement); settings: read-out: pKi EP2 (converted)
T2 construct: expressed in transfected cells
T2 sequence (P43116 whole entry): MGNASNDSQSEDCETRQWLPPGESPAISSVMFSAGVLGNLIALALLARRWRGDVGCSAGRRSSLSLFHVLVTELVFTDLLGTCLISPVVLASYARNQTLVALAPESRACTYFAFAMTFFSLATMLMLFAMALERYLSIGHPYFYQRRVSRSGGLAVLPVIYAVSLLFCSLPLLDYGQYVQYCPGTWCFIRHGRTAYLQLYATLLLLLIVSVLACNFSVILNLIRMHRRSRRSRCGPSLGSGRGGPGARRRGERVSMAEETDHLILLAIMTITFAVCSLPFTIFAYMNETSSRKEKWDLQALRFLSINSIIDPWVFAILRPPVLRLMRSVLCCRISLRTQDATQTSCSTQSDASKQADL
Procedure, shortened: (§4)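 Membranes from cells stably transfected with human EP receptor cDNA were incubated to equilibrium with [3H]PGE2 and compound (0.1 to 10 000 nM). Non-specific binding was defined with 10 uM PGE2; bound radioligand was separated by vacuum filtration and counted by scintillation.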

human EP1 receptor = target: T3, human EP1 receptor (Homo sapiens, UniProt P34995); test: Binding ability to human EP1 receptor ([3H]PGE2 displacement); settings: membranes from cells stably transfected with human EP receptor cDNA; [3H]PGE2 3.6 nM; Cheng-Prusoff from IC50; read-out: pKi EP1 (converted)
T3 construct: expressed in transfected cells
T3 sequence (P34995 1-402): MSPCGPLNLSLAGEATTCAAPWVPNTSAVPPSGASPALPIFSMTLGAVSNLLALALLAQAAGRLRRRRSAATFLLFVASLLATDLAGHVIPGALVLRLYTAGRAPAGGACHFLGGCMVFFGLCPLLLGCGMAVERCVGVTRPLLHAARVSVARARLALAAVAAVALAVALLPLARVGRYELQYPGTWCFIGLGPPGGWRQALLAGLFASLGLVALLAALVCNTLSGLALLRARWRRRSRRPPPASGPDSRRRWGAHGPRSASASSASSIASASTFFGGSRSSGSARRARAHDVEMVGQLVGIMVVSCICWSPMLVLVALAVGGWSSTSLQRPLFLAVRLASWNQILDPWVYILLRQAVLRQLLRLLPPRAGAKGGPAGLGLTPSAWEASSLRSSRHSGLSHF
Procedure: as §1
as §2, with “For assay, membranes expressing human EP4, EP3, EP2 or EP1 receptors were incubated in Millipore (MHVBN45) plates containing assay buffer, radiolabelled [^3H]PGE2 and 0.1 to 10 000 nM concentrations of compounds. Incubations” for “Incubations”
as §3

human EP3 receptor = target: T4, human EP3 receptor (Homo sapiens, UniProt P43115); test: Binding ability to human EP3 receptor ([3H]PGE2 displacement); settings: membranes from cells stably transfected with human EP receptor cDNA; [3H]PGE2 2.5 nM; Cheng-Prusoff from IC50; read-out: pKi EP3 (converted)
T4 construct: expressed in transfected cells
T4 sequence (P43115 1-390): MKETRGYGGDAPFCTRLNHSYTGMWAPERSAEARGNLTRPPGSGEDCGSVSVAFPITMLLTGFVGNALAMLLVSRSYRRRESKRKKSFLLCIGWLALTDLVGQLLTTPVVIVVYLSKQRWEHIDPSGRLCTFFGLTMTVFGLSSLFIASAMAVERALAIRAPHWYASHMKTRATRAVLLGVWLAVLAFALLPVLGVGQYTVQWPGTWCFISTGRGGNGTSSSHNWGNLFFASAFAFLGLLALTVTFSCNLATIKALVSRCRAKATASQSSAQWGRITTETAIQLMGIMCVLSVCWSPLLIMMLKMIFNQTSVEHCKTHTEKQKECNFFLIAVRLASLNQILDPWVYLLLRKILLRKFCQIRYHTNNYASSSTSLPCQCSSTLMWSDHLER
Procedure, shortened: as §4

T1 sequence (P35408 whole entry): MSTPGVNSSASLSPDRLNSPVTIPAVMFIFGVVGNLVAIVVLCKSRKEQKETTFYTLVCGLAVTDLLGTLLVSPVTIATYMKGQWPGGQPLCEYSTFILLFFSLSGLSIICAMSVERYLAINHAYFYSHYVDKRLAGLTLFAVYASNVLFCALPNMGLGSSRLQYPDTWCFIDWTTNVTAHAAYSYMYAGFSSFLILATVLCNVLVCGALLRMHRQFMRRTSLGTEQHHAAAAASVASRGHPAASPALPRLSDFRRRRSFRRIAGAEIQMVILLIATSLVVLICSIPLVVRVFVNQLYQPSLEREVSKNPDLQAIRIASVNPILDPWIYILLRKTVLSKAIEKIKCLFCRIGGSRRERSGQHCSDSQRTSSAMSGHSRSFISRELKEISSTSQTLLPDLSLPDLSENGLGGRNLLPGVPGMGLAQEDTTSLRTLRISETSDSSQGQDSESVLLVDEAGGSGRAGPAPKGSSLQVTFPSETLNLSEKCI

Ki (human EP4 receptor) | Ki (human EP2 receptor) | Ki (human EP1 receptor) | Ki (human EP3 receptor) | SMILES
< 0.01 µM | > 10 µM | > 10 µM | > 10 µM | Cc1ccccc1S(=O)(=O)NC(=O)c1cc(COc2ccc(-c3ccccc3)cc2)c(C)o1 [Compound 60, N-[4-(Biphenyl-4-yloxymethyl)-5-methyl-furan-2-carbonyl]-2-methyl-benzenesulphonamide]
< 0.01 µM | > 10 µM | > 10 µM | > 10 µM | COc1ccc(-c2ccc(OCc3cc(S(=O)(=O)NC(=O)c4ccccc4)oc3C)cc2)cc1 [Compound 49, 4-(4′-Methoxy-biphenyl-4-yloxymethyl)-5-methyl-furan-2-sulfonic acid benzoylamide]
< 0.316 µM | > 10 µM | > 10 µM | > 10 µM | COc1ccc(-c2ccc(NC(=O)c3cc(C(=O)O)oc3C)cc2)cc1 [Compound 24, 4-(4′-Methoxy-biphenyl-4-ylcarbamoyl)-5-methyl-furan-2-carboxylic acid]
< 0.1 µM | > 10 µM |  | > 10 µM | Cc1oc(/C=C/C(=O)O)cc1COc1ccc(-c2ccccc2)cc1 [Compound 42, 3-[4-(Biphenyl-4-yloxymethyl)-5-methyl-furan-2-yl]-acrylic acid]
< 0.1 µM | > 10 µM |  | > 10 µM | Cc1oc(S(=O)(=O)NC(=O)c2ccccc2)cc1COc1ccc(-c2ccccc2)cc1 [Compound 46, 4-(Biphenyl-4-yloxymethyl)-5-methyl-furan-2-sulfonic acid benzoylamide]
< 1 µM | > 10 µM |  | > 10 µM | Cc1oc(S(=O)(=O)NC(=O)c2cccnc2)cc1COc1ccc(-c2ccccc2)cc1 [Compound 68, 4-(Biphenyl-4-yloxymethyl)-5-methyl-furan-2-sulphonic acid (pyridine-3-carbonyl)-amide]
< 3.16 µM | > 10 µM |  | > 10 µM | COc1ccc(-c2ccc(OCCc3cc(C(=O)O)oc3C)cc2)cc1 [Compound 73, 4-[2-(4′-Methoxy-biphenyl-4-yloxy)-ethyl]-5-methyl-furan-2-carboxylic acid]
< 0.1 µM | > 10 µM |  | > 10 µM | Cc1oc(S(=O)(=O)NC(=O)c2cccs2)cc1COc1ccc(-c2ccccc2)cc1 [Compound 64, 4-(Biphenyl-4-yloxymethyl)-5-methyl-furan-2-sulphonic acid (thiophene-2-carbonyl)-amide]
< 1 µM | > 10 µM |  | > 10 µM | COc1ccc(-c2ccc(OCc3cc(C(=O)O)oc3C)cc2)c(C)c1 [Compound 144, 4-(4′-Methoxy-2′-methyl-biphenyl-4-yloxymethyl)-5-methyl-furan-2-carboxylic acid]
< 0.316 µM | > 10 µM |  | > 10 µM | COc1ccc(-c2ccc(OCc3cc(C(=O)O)oc3C(F)(F)F)cc2)cc1 [Compound 94, 4-(4′-Methoxy-biphenyl-4-yloxymethyl)-5-trifluoromethyl-furan-2-carboxylic acid]
< 3.16 µM | > 10 µM |  | > 10 µM | N#Cc1ccc(-c2ccc(OCc3cc(C(=O)O)oc3C(F)(F)F)cc2)cc1 [Compound 93, 4-(4′-Cyano-biphenyl-4-yloxymethyl)-5-trifluoromethyl-furan-2-carboxylic acid]
< 0.01 µM | > 10 µM |  | > 10 µM | Cc1noc(C)c1S(=O)(=O)NC(=O)c1cc(CNc2ccc(-c3ccc(OC(F)F)cc3)cc2)c(C)o1 [Compound 174, 3,5-Dimethyl-isoxazole-4-sulphonic acid {4-[(4′-difluoromethoxy-biphenyl-4-ylamino)-methyl]-5-methyl-furan-2-carbonyl}-amide]
< 0.316 µM | > 10 µM |  | > 10 µM | COc1ccc(-c2ccc(NCc3cc(C(=O)NS(=O)(=O)c4ccccc4C)oc3C)cc2)nc1 [Compound 167, N-(4-{[4-(5-Methoxy-pyridin-2-yl)-phenylamino]-methyl}-5-methyl-furan-2-carbonyl)-2-methyl-benzenesulphonamide]
< 10 µM | > 10 µM |  | > 10 µM | Cc1ccccc1S(=O)(=O)NC(=O)c1cc(CS(=O)(=O)c2ccc(-c3ccc(OC(F)F)cc3)cc2)c(C)o1 [Compound 156a, N-[4-(4′-Difluoromethoxy-biphenyl-4-sulfonylmethyl)-5-methyl-furan-2-carbonyl]-2-methyl-benzenesulfonamide]
< 3.16 µM | > 3.16 µM |  | > 10 µM | Cc1oc(C(=O)O)cc1COc1ccc2c(c1)oc1ccccc12 [Compound 50, 4-(Dibenzofuran-3-yloxymethyl)-5-methyl-furan-2-carboxylic acid]
< 3.16 µM | > 31.6 µM |  | > 10 µM | COc1ccc(-c2ccc(OCc3cc(C(=O)O)oc3C)cn2)cc1 [Compound 56, 4-[6-(4-Methoxy-phenyl)-pyridin-3-yloxymethyl]-5-methyl-furan-2-carboxylic acid]
< 3.16 µM | > 10 µM |  | > 10 µM | Cc1oc(C(=O)NS(=O)(=O)c2ccccc2)cc1COc1ccc(-c2ncccn2)cc1 [Compound 138, N-[5-Methyl-4-(4-pyrimidin-2-yl-phenoxymethyl)-furan-2-carbonyl]-benzenesulphonamide]
< 3.16 µM | > 10 µM |  | > 10 µM | N#Cc1ccc(-c2ccc(OCc3coc(C(=O)O)c3)cc2)cc1 [Compound 79, 4-(4′-Cyano-biphenyl-4-yloxymethyl)-furan-2-carboxylic acid]
< 3.16 µM | > 10 µM |  | > 10 µM | Cc1oc(C(=O)O)cc1COc1cccc(-c2cccc(C(F)(F)F)c2)c1 [Compound 109, 5-Methyl-4-(3′-trifluoromethyl-biphenyl-3-yloxymethyl)-furan-2-carboxylic acid]
< 3.16 µM | > 10 µM |  | > 10 µM | O=C(O)c1cc(COc2ccc3oc4ccccc4c3c2)c(C(F)(F)F)o1 [Compound 92, 4-(Dibenzofuran-2-yloxymethyl)-5-trifluoromethyl-furan-2-carboxylic acid]
